pIC50: −log10 of the molar value.
Legend:
[1] = target: ALK kinase (Homo sapiens, UniProt Q9UM73); assay: Test to measure ALK kinase inhibition (GST-PLCγ1 substrate, anti-phosphotyrosine ELISA, luminescence); type: biochemical; settings: ALK kinase 180 ng/ml, 250 μM ATP, 30 minutes at 30° C.
Experimental: Test to Measure ALK Kinase Inhibition
A ViewPlate (Packard) is incubated with the GST-PLCγ1 substrate (purified recombinant form) at 0.1 mg/ml in phosphate buffer (PBS pH 7.4)(100 μl/well) for one hour under shaking. The plate is then saturated with a blocking solution containing 5% bovine serum albumin (BSA) (SIGMA) in PBS buffer pH 7.4.
After adding the inhibitor at the desired final concentration (usual range of 30 μM to 10 nM), the reaction is conducted by adding the ALK kinase at 180 ng/ml in 13 mM Tris reaction buffer pH 7.5 (SIGMA); 6.5 mM MgCl2 (MERCK); 0.65 mM DiThioThreitol (DTT) (ACROS); 39 mM sodium β-glycerophosphate (TCI); 0.65 mM sodium orthovanadate (SIGMA) and 250 μM ATP (SIGMA). Incubation is carried out for 30 minutes at 30° C. under shaking.
After three washings under shaking in 0.1% PBS/Tween-20 buffer (SIGMA), an anti-phosphotyrosine antibody coupled with HRP (UBI) diluted to 1/1000th in PBS/BSA buffer 5 mg/ml, is incubated for one hour under shaking. After three further washings in 0.1% PBS/Tween-20, the wells are incubated two minutes with 100 μl of SuperSignal ELISA mixture (PIERCE).
The signal is read in luminescent mode using a luminometer (MOLECULAR DEVICES SpectraMax M5e).

[2] = tested on: karpas 299 cells; assay: Measurement of inhibition of cell proliferation (Karpas), ATPlite; type: cell-based
Experimental: Measurement of Inhibition of Cell Proliferation (Karpas):
The antiproliferative activities of the compounds were measured using the ATPlite technique (Perkin Elmer).
The non-adhering cells (karpas 299) are seeded in 96-well plates (300 000 cells/ml) on Day 1 at a concentration compatible with logarithmic growth for 72 hours required for evaluation of the compounds. All the cells are treated on Day 1, then placed in an incubator at 37° C. under 5% CO2 atmosphere. Cell viability is evaluated on Day 4 by assay of released ATP, characteristic of viable cells. The IC50 values are determined by non-linear regression on the basis of a sigmoid model of dose/response relationship, Hill's slope coefficient being left variable, performed using GraphPad software sequence with the supplied algorithm.

Chain of ALK kinase (Q9UM73 19-1620): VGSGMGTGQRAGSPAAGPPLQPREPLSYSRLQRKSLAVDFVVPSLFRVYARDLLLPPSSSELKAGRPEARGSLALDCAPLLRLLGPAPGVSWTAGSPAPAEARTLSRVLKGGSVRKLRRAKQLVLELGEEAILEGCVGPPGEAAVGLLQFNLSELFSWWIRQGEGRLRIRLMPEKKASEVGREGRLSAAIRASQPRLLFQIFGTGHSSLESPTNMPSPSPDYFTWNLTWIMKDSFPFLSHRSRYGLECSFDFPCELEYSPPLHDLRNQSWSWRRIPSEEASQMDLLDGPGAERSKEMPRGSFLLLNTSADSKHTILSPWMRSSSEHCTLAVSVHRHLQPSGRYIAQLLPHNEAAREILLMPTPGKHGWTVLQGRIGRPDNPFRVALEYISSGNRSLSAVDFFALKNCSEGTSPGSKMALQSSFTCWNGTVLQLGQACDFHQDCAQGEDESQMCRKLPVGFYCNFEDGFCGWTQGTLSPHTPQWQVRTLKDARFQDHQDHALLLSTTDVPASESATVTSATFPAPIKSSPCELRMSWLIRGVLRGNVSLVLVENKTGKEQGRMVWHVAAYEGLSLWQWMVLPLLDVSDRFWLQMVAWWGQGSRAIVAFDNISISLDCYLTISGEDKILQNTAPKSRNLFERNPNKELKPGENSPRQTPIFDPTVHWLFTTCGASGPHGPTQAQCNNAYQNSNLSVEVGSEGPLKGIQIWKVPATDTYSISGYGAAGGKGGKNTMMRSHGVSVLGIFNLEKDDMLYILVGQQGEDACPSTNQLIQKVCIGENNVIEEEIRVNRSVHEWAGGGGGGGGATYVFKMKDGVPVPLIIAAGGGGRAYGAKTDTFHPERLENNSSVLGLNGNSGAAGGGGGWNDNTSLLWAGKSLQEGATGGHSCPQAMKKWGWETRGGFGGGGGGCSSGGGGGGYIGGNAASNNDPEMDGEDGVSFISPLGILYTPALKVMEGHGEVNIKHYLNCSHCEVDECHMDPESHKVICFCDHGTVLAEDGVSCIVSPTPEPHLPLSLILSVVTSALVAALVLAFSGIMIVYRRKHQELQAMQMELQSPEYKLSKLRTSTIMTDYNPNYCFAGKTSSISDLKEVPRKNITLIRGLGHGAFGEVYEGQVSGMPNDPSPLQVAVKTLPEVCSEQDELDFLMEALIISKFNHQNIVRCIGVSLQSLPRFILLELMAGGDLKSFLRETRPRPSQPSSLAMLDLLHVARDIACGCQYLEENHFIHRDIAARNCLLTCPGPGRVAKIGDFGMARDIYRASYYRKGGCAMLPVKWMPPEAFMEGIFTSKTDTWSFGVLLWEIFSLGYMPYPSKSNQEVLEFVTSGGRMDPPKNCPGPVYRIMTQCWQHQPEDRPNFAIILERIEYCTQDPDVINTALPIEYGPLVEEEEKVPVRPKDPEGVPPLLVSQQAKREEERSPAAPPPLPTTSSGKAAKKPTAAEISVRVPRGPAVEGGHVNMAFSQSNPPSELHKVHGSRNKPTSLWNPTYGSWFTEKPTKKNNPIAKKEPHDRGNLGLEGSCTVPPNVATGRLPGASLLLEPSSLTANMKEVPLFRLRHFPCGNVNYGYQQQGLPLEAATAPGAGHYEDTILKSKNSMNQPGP

Row | SMILES | pIC50 [1] | pIC50 ([2]; Homo sapiens, KARPAS-299, 72 h) | pIC50 ([2]; 72 hours)
1 | N#Cc1c(-c2ccc(O)cc2)nc2[nH]ncc2c1-c1ccc(O)cc1 [Compound 17] | 6.00 to 7.00 | 5.00 to 6.00 | –
2 | Cc1n[nH]c2nc(-c3ccc(O)cc3)c(C#N)c(-c3ccc(O)cc3)c12 [Compound 19] | 6.00 to 7.00 | 5.00 to 6.00 | –
3 | N#Cc1c(-c2ccc(O)cc2)nc2[nH]ncc2c1-c1ccco1 [Compound 44] | > 7.00 | 6.00 to 7.00 | –
4 | N#Cc1c(-c2ccc(O)cc2)nc2[nH]ncc2c1-c1ccoc1 [Compound 45] | 6.00 to 7.00 | 5.00 to 6.00 | –
5 | CN1CCN(Cc2ccc(-c3c(C#N)c(-c4ccc(O)cc4)nc4[nH]ncc34)cc2)CC1 [Compound 47] | 5.00 to 6.00 | 5.00 to 6.00 | –
6 | N#Cc1c(-c2ccc(O)cc2)nc2[nH]ncc2c1-c1nccs1 [Compound 48] | 6.00 to 7.00 | 5.00 to 6.00 | –
7 | N#Cc1c(-c2ccc(O)cc2)nc2[nH]ncc2c1-c1ccsc1 [Compound 50] | 6.00 to 7.00 | 5.00 to 6.00 | –
8 | N#Cc1c(-c2ccc(O)cc2)nc2[nH]ncc2c1-c1cccs1 [Compound 52] | 6.00 to 7.00 | 5.00 to 6.00 | –
9 | N#Cc1c(-c2ccc(O)cc2)nc2[nH]ncc2c1-c1ccc(CN)cc1 [Compound 53] | 6.00 to 7.00 | 5.00 to 6.00 | –
10 | N#Cc1c(-c2ccc(O)cc2)nc2[nH]ncc2c1-c1ccc(Cn2ccnc2)cc1 [Compound 54] | 5.00 to 6.00 | < 5.00 | –
11 | N#Cc1c(-c2ccc(O)cc2)nc2[nH]ncc2c1-c1ccc(N2CCNCC2)cc1 [Compound 59] | 6.00 to 7.00 | 5.00 to 6.00 | –
12 | N#Cc1c(-c2ccc(O)cc2)nc2[nH]ncc2c1-c1cccc(N2CCNCC2)c1 [Compound 68] | 6.00 to 7.00 | 5.00 to 6.00 | –
13 | N#Cc1c(-c2ccc(O)cc2)nc2[nH]ncc2c1-c1ccc(OCCN2CCOCC2)cc1 [Compound 73] | 6.00 to 7.00 | – | –
14 | COc1cc(-c2cc3[nH]ncc3c(-c3ccco3)c2C#N)ccc1O [Compound 74] | 6.00 to 7.00 | – | –
15 | N#Cc1c(-c2ccc(O)cc2F)nc2[nH]ncc2c1-c1ccco1 [Compound 75] | > 7.00 | 6.00 to 7.00 | –
16 | N#Cc1c(-c2ccc(O)c(F)c2)cc2[nH]ncc2c1-c1ccco1 [Compound 76] | 6.00 to 7.00 | 5.00 to 6.00 | –
17 | N#Cc1c(-c2ccc(O)cc2F)nc2[nH]ncc2c1-c1ccc(CO)o1 [Compound 77] | 6.00 to 7.00 | 5.00 to 6.00 | –
18 | Cc1n[nH]c2nc(-c3ccc(O)cc3)c(C#N)c(-c3ccco3)c12 [Compound 78] | 6.00 to 7.00 | 5.00 to 6.00 | –
19 | Cc1n[nH]c2cc(-c3ccc(O)cc3F)c(C#N)c(-c3ccc(CN)o3)c12 [Compound 80] | 6.00 to 7.00 | 5.00 to 6.00 | –
20 | Cc1n[nH]c2cc(-c3ccc(O)cc3F)c(C#N)c(-c3ccco3)c12 [Compound 81] | > 7.00 | 6.00 to 7.00 | –

Row | SMILES | pIC50 [1] | pIC50 ([2]; Homo sapiens, KARPAS-299, 72 h) | pIC50 ([2]; 72 hours)
21 | CN1CCN(c2ccc(-c3c(C#N)c(-c4ccc(O)cc4)nc4[nH]ncc34)o2)CC1 [Compound 82] | 6.00 to 7.00 | 5.00 to 6.00 | –
22 | CN1CCN(c2ccc(-c3c(C#N)c(-c4ccc(O)cc4F)nc4[nH]ncc34)o2)CC1 [Compound 83] | > 7.00 | 6.00 to 7.00 | –
23 | N#Cc1c(-c2ccc(O)cc2F)nc2[nH]ncc2c1-c1ccc(CN2CCOCC2)o1 [Compound 84] | 6.00 to 7.00 | 5.00 to 6.00 | –
24 | CN1CCN(Cc2ccc(-c3c(C#N)c(-c4ccc(O)cc4F)nc4[nH]ncc34)o2)CC1 [Compound 85] | 6.00 to 7.00 | 5.00 to 6.00 | –
25 | N#Cc1c(-c2ccc(O)cc2F)nc2[nH]ncc2c1-c1ccc(N2CCOCC2)o1 [Compound 86] | > 7.00 | 5.00 to 6.00 | –
26 | Cc1n[nH]c2nc(-c3ccc(O)cc3F)c(C#N)c(-c3ccc(N4CCNCC4)cc3)c12 [Compound 88] | > 7.00 | – | 6.00 to 7.00
27 | Cc1n[nH]c2nc(-c3cc(Br)c(O)c(Br)c3F)c(C#N)c(-c3ccco3)c12 [Compound 90] | 5.00 to 6.00 | < 5.00 | –
28 | N#Cc1c(-c2ccc(O)cc2F)nc2[nH]ncc2c1-c1ccc(N2CCNCC2)cc1 [Compound 91] | > 7.00 | 5.00 to 6.00 | –
29 | Cc1ccc(-c2c(C#N)c(-c3ccc(O)cc3F)nc3[nH]ncc23)o1 [Compound 92] | > 7.00 | 6.00 to 7.00 | –
30 | N#Cc1c(-c2ccc(O)cc2F)nc2[nH]nc(N)c2c1-c1ccco1 [Compound 93] | < 5.00 | 6.00 to 7.00 | –
31 | Cc1c(C#N)c(-c2ccc(O)cc2)nc2[nH]nc(-c3ccc(N4CCNCC4)cc3)c12 [Compound 96] | 6.00 to 7.00 | 5.00 to 6.00 | –
32 | N#Cc1c(-c2ccc(O)cc2F)nc2[nH]ncc2c1-c1ccc(-c2nn[nH]n2)cc1 [Compound 101] | 5.00 to 6.00 | 5.00 to 6.00 | –
33 | N#Cc1cc2c(-c3ccc(N4CCNCC4)cc3)n[nH]c2nc1-c1ccc(O)cc1 [Compound 102] | > 7.00 | 6.00 to 7.00 | –
34 | Cc1c(C#N)c(-c2ccc(O)cc2)nc2[nH]nc(-c3ccnc(N4CCN(C)CC4)c3)c12 [Compound 103] | 6.00 to 7.00 | < 5.00 | –
35 | CN1CCN(c2ccc(-c3c(C#N)c(-c4ccc(O)cc4F)nc4[nH]nc(N)c34)o2)CC1 [Compound 104] | > 7.00 | 5.00 to 6.00 | –
36 | N#Cc1cc2c(N)n[nH]c2nc1-c1ccc(O)cc1F [Compound 105] | 6.00 to 7.00 | 5.00 to 6.00 | –
37 | Cc1c(C#N)c(-c2ccc(O)cc2)nc2[nH]nc(-c3cccc(N4CCNCC4)c3)c12 [Compound 106] | 6.00 to 7.00 | 5.00 to 6.00 | –
38 | Cc1c(C#N)c(-c2ccc(O)cc2F)nc2[nH]nc(-c3csc(C4CCNCC4)n3)c12 [Compound 108] | > 7.00 | 5.00 to 6.00 | –
39 | N#Cc1c(-c2ccc(O)cc2F)nc2[nH]ncc2c1-c1ccc(N2CCNCC2)o1 [Compound 113] | > 7.00 | 6.00 to 7.00 | –
40 | Cc1c(C#N)c(-c2ccc(O)cc2F)nc2[nH]nc(N)c12 [Compound 114] | 6.00 to 7.00 | 5.00 to 6.00 | –

Row | SMILES | pIC50 [1] | pIC50 ([2]; Homo sapiens, KARPAS-299, 72 h) | pIC50 ([2]; 72 hours)
41 | Cc1c(C#N)c(-c2ccc(O)cc2F)nc2[nH]nc(-c3ccc(N4CCN(C)CC4)nc3)c12 [Compound 115] | 6.00 to 7.00 | 5.00 to 6.00 | –
42 | Cc1n[nH]c2nc(-c3ccc(O)cc3F)c(C#N)c(-c3ccc(N(C)C)cc3)c12 [Compound 116] | 6.00 to 7.00 | 5.00 to 6.00 | –
43 | N#Cc1c(-c2ccc(O)cc2F)nc2[nH]ncc2c1-c1ccc(Br)o1 [Compound 117] | > 7.00 | 6.00 to 7.00 | –
44 | Cc1c(C#N)c(-c2ccc(O)cc2F)nc2[nH]nc(-c3ccc(N4CCNCC4)cc3)c12 [Compound 118] | > 7.00 | 5.00 to 6.00 | –
45 | Cc1c(C#N)c(-c2ccc(O)cc2F)nc2[nH]nc(-c3ccc(N(C)CCN(C)C)nc3)c12 [Compound 119] | 6.00 to 7.00 | 5.00 to 6.00 | –
46 | Cc1cc(-c2n[nH]c3nc(-c4ccc(O)cc4F)c(C#N)c(C)c23)no1 [Compound 120] | 6.00 to 7.00 | 5.00 to 6.00 | –
47 | N#Cc1c(-c2ccc(O)cc2F)nc2[nH]nc(N)c2c1-c1ccc(N2CCNCC2)cc1 [Compound 121] | > 7.00 | 5.00 to 6.00 | –
48 | Cc1n[nH]c2nc(-c3ccc(O)cc3F)c(C#N)c(-c3ccc(N4CC[C@@H](N)C4)o3)c12 [Compound 122] | > 7.00 | 5.00 to 6.00 | –
49 | CNC1CCN(c2ccc(-c3n[nH]c4nc(-c5ccc(O)cc5F)c(C#N)c(C)c34)cn2)C1 (stereo not drawn) [Compound 123] | 6.00 to 7.00 | 5.00 to 6.00 | –
50 | Cc1n[nH]c2nc(-c3ccc(O)cc3F)c(C#N)c(-c3ccc(N4CC[C@@H](N)C4)nc3)c12 [Compound 124] | > 7.00 | 5.00 to 6.00 | –
51 | CNC1CCN(c2ccc(-c3c(C#N)c(-c4ccc(O)cc4F)nc4[nH]nc(C)c34)o2)C1 (stereo not drawn) [Compound 130] | > 7.00 | 6.00 to 7.00 | –
52 | Cc1n[nH]c2nc(-c3ccc(O)cc3F)c(C#N)c(-c3ccc(N4CCNCC4)nc3)c12 [Compound 131] | 6.00 to 7.00 | 5.00 to 6.00 | –
53 | Cc1n[nH]c2nc(Cc3ccc(F)cc3F)c(C#N)c(-c3ccc(N4CCNCC4)cc3F)c12 [Compound 302] | < 5.00 | – | –
54 | N#Cc1c(-c2ccc(O)cc2)nc2[nH]nc(N)c2c1-c1ccc(N2CCNCC2)cc1 [Compound 303] | 5.00 to 6.00 | – | –
55 | N#Cc1c(-c2ccc(OC(=O)c3ccccc3)cc2F)nc2[nH]nc(N)c2c1-c1ccc(N2CCNCC2)cc1 [Compound 304] | 5.00 to 6.00 | – | –
56 | COC(=O)c1c(-c2ccc(O)cc2)nc2[nH]nc(N)c2c1-c1ccc(N2CCNCC2)cc1 [Compound 305] | > 7.00 | – | –
57 | COC(=O)c1c(-c2ccc(OC(=O)C3CC3)cc2F)nc2[nH]nc(C)c2c1-c1ccc(N2CCNCC2)cc1 [Compound 306] | > 7.00 | – | –
58 | COC(=O)c1c(-c2ccc(O)cc2)nc2[nH]nc(N)c2c1-c1ccc(N2CCN(C)CC2)cc1 [Compound 307] | > 7.00 | – | –

Reference: US8889711B2, “Pyrazolopyridine derivatives as anticancer agent” (Pierre Fabre Medicament, priority 2009, dated 2014)
